Some test systems named below: 786-0 renal; CAKI-1 renal; HCC-2998 colon; IGROV1 ovarian; MDA-MB-435; OVCAR-3 ovarian; OVCAR-4 ovarian; PC-3 prostate; SK-MEL-5 melanoma; U251 CNS.
Holding throughout (test): NCI tumour cell line growth inhibition, 48 h

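Test compounds were applied to cells in 96-well plates for 48 hours at 5 doses. GI50 marks 50% less growth. TGI marks complete inhibition of growth.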 A value given as a limit tells only on which side of the number the result lay.

As to `Cc1cccc(NC2=C(Cl)C(=O)c3nc(C)ccc3C2=O)c1`, the GI50 is 1.79 µM in the assay with 786-0 renal; 1060 nM in the assay with CAKI-1 renal; 1.69 µM with HCC-2998 colon; 1180 nM in the assay on IGROV1 ovarian; 0.218 µM in the assay on MDA-MB-435; 262 nM in the assay on OVCAR-3 ovarian. Moreover, the GI50 with OVCAR-4 ovarian was 1.2 µM; with PC-3 prostate, 1.29 µM; in the assay with SK-MEL-5 melanoma, 1.66 µM; with U251 CNS, 1.09 µM. Further, the TGI in the assay on 786-0 renal is 3.36 µM; with CAKI-1 renal, 2.26 µM; in the assay with HCC-2998 colon, 3.22 µM; in the assay with IGROV1 ovarian, 2.6 µM; in the assay with MDA-MB-435, 0.469 µM; in the assay with OVCAR-3 ovarian, 1.18 µM. For the same compound, the TGI with OVCAR-4 ovarian was 2.45 µM; in the assay on PC-3 prostate, 4.8 µM; in the assay on SK-MEL-5 melanoma, 3.03 µM; in the assay on U251 CNS it was 2.67 µM.
On to `COc1nc(=O)n(C2C=CC(=O)O2)cc1F` (stereo not drawn), for which the GI50 is 12.1 µM with 786-0 renal; 2670 nM in the assay with CAKI-1 renal; 12.9 µM with HCC-2998 colon; 8690 nM in the assay with IGROV1 ovarian; 5.23 µM in the assay with MDA-MB-435; 3260 nM with OVCAR-3 ovarian. The GI50 in the assay with OVCAR-4 ovarian was 3.09 µM; with PC-3 prostate it was 19.8 µM; with SK-MEL-5 melanoma it was 4.91 µM; with U251 CNS, 14.6 µM. The TGI in the assay with 786-0 renal amounted to 25.1 µM; in the assay on CAKI-1 renal, 8.7 µM; in the assay on HCC-2998 colon, 25.5 µM; with IGROV1 ovarian, 23.2 µM; in the assay with MDA-MB-435, 27.6 µM; in the assay on OVCAR-3 ovarian it was 11.2 µM. In addition, the TGI turned out to be 15.5 µM in the assay with OVCAR-4 ovarian, 62.4 µM with PC-3 prostate, 18.6 µM in the assay with SK-MEL-5 melanoma and 29.1 µM in the assay on U251 CNS.
For the compound `CN(C)CCN1CCC(Cc2ccccc2)CC1`, the GI50 in the assay on 786-0 renal was greater than 80 µM; in the assay on CAKI-1 renal it was greater than 80000 nM; in the assay on HCC-2998 colon, greater than 80 µM; with IGROV1 ovarian, greater than 80000 nM; with MDA-MB-435, greater than 80 µM; in the assay with OVCAR-3 ovarian, greater than 80000 nM. Further, the GI50 is greater than 80 µM with OVCAR-4 ovarian, greater than 80 µM in the assay with PC-3 prostate, 43.2 µM in the assay on SK-MEL-5 melanoma and greater than 80 µM with U251 CNS. Moreover, the TGI with 786-0 renal, with CAKI-1 renal, in the assay with HCC-2998 colon, in the assay with IGROV1 ovarian, in the assay on MDA-MB-435 and with OVCAR-3 ovarian was greater than 80 µM throughout. The TGI with OVCAR-4 ovarian, with PC-3 prostate, in the assay with SK-MEL-5 melanoma and in the assay with U251 CNS was greater than 80 µM each time.
Consider `C=C(CN(C)Cc1ccccc1)c1ccc(NC(=O)c2ccc(C(=C)CN(C)Cc3ccccc3)cc2)cc1`, for which the GI50 with 786-0 renal was 25.6 µM; in the assay with CAKI-1 renal, 53000 nM; in the assay on HCC-2998 colon it was 37.2 µM; in the assay with IGROV1 ovarian, 18500 nM; in the assay on MDA-MB-435, greater than 100 µM; in the assay on OVCAR-3 ovarian, greater than 100000 nM. Besides, the GI50 with OVCAR-4 ovarian was 17.6 µM; in the assay on PC-3 prostate, 11 µM; with SK-MEL-5 melanoma, 68.3 µM; in the assay with U251 CNS it was 20.7 µM. The TGI with 786-0 renal was 65.4 µM; in the assay on CAKI-1 renal, greater than 100 µM; with HCC-2998 colon, greater than 100 µM; in the assay with IGROV1 ovarian, 53.2 µM; with MDA-MB-435 it was greater than 100 µM; with OVCAR-3 ovarian, greater than 100 µM. The TGI is 38.6 µM in the assay with OVCAR-4 ovarian, 23 µM in the assay on PC-3 prostate, greater than 100 µM in the assay on SK-MEL-5 melanoma and 45.7 µM in the assay with U251 CNS.
On to `CCCCCCCCSC1=C(Cl)C(=O)C(OC)=C(OC)C1=O`, for which the TGI in the assay with 786-0 renal was 30 µM; with CAKI-1 renal, 34.7 µM; in the assay with HCC-2998 colon it was 32.4 µM; in the assay with IGROV1 ovarian it was 32.2 µM; in the assay on MDA-MB-435, 35.4 µM; in the assay with OVCAR-3 ovarian, 23.8 µM. The TGI in the assay on OVCAR-4 ovarian amounted to 29.8 µM; in the assay with PC-3 prostate, 31.9 µM; in the assay on SK-MEL-5 melanoma, 18.6 µM; with U251 CNS it was 26.6 µM.
As for `CCN(Cc1c(F)cccc1OC)c1ccc(CO)c(Cl)c1`, the GI50 with 786-0 renal is 16.7 µM; in the assay on CAKI-1 renal, 3050 nM; with HCC-2998 colon, 7.33 µM; in the assay on IGROV1 ovarian, less than 36 nM; in the assay with MDA-MB-435, 16 µM; with OVCAR-3 ovarian it was 253 nM. The GI50 in the assay on OVCAR-4 ovarian was 0.216 µM; in the assay with PC-3 prostate it was 17.1 µM; in the assay on SK-MEL-5 melanoma it was 11.9 µM; in the assay on U251 CNS it was 0.716 µM. Moreover, the TGI was determined as 38.9 µM with 786-0 renal; 35.5 µM in the assay with CAKI-1 renal; 22.3 µM with HCC-2998 colon; 39 µM with MDA-MB-435; 1.81 µM in the assay on OVCAR-3 ovarian; 13 µM in the assay on OVCAR-4 ovarian. Also, the results for the TGI in the assay with PC-3 prostate, in the assay with SK-MEL-5 melanoma and in the assay with U251 CNS were 58.4 µM, 24.2 µM and 26.7 µM, respectively.
In the case of `COC(=O)/C=C/c1cc(OC(C)=O)c2c(c1)C(C(=O)OC)C(c1ccc(OC(C)=O)c(OC(C)=O)c1)O2` (stereo not drawn), the GI50 in the assay on 786-0 renal was 0.488 µM; in the assay on CAKI-1 renal it was 278 nM; in the assay on HCC-2998 colon it was 0.461 µM; in the assay on IGROV1 ovarian, 589 nM; in the assay with MDA-MB-435, 0.0219 µM; in the assay with OVCAR-3 ovarian, 37.4 nM. Also, the GI50 in the assay on OVCAR-4 ovarian is 0.345 µM; in the assay on PC-3 prostate, 0.371 µM; in the assay on SK-MEL-5 melanoma, 0.0572 µM; in the assay on U251 CNS, 0.11 µM. The TGI was greater than 56.8 µM in the assay on 786-0 renal; 94 µM in the assay with CAKI-1 renal; 48.4 µM in the assay on HCC-2998 colon; greater than 100 µM with IGROV1 ovarian; 0.0606 µM with MDA-MB-435; 15.8 µM in the assay on OVCAR-3 ovarian. The TGI in the assay with OVCAR-4 ovarian was 49.7 µM; in the assay on PC-3 prostate, greater than 49 µM; in the assay on SK-MEL-5 melanoma, 1.98 µM; in the assay on U251 CNS it was greater than 50.9 µM.
Consider `COc1ccc(CNc2c3ccccc3nc3ccccc23)cc1F`, for which the GI50 in the assay on 786-0 renal is 3.6 µM; in the assay on CAKI-1 renal, 2260 nM; in the assay on HCC-2998 colon, 2.07 µM; in the assay on IGROV1 ovarian, 2820 nM; with MDA-MB-435, 2.9 µM; with OVCAR-3 ovarian it was 4080 nM. Moreover, the GI50 in the assay with OVCAR-4 ovarian is 3.28 µM; with PC-3 prostate it was 3.14 µM; in the assay with SK-MEL-5 melanoma it was 3.21 µM; in the assay with U251 CNS it was 3.82 µM. Further, the TGI in the assay with 786-0 renal was 13.7 µM; with CAKI-1 renal, 8.35 µM; in the assay with HCC-2998 colon, 5.27 µM; in the assay on IGROV1 ovarian it was 10.4 µM; in the assay with OVCAR-3 ovarian, 13.3 µM; in the assay with OVCAR-4 ovarian it was 12.5 µM. The TGI was determined as 12 µM in the assay with PC-3 prostate, 10.6 µM in the assay with SK-MEL-5 melanoma and 15.5 µM in the assay on U251 CNS.

The values above are taken from PubChem BioAssay (NCI).
